Laboratory results from ChEMBL document CHEMBL3758091, “Identification of N-(6-mercaptohexyl)-3-(4-pyridyl)-1H-pyrazole-5-carboxamide and its disulfide prodrug as potent histone deacetylase inhibitors with in vitro and in vivo anti-tumor efficacy” (Eur J Med Chem, 2016).

How the values were obtained:
A549 = assay: cells; format: functional; conditions: Homo sapiens, A549, 96 h
Description: Growth inhibition of human A549 cells after 96 hrs by MTT assay

cells [1] = format: functional; conditions: Homo sapiens, ASPC1, 96 h
Description: Growth inhibition of human Aspc-1 cells after 96 hrs by MTT assay

cells [2] = format: functional; conditions: Homo sapiens, PC-3, 96 h
Description: Growth inhibition of human PC3 cells after 96 hrs by MTT assay

HT-29 = assay: Growth inhibition of human HT-29 cells after 96 hrs by MTT assay; format: functional; conditions: Homo sapiens, HT-29, 96 h
MDA-MB-231 = assay: cells; format: functional; conditions: Homo sapiens, MDA-MB-231, 96 h
Description: Growth inhibition of human MDA-MB-231 cells after 96 hrs by MTT assay

[3] = Cytotoxicity against HEK293 cells assessed as growth inhibition after 96 hrs by MTT assay; conditions: human
MCF7 = assay: cells; format: functional; conditions: Homo sapiens, MCF7, 96 h
Description: Growth inhibition of human MCF7 cells after 96 hrs by MTT assay

cells [4] = format: functional; conditions: Homo sapiens, HCT-116, 96 h
Description: Growth inhibition of human HCT116 cells after 96 hrs by MTT assay

Histone deacetylase = assay: Inhibition of HDAC in human HeLa cell nuclear extract using Boc-Lys(Ac)-AMC as substrate preincubated for 15 mins followed by substrate addition measured after 60 mins by fluorescence-based assay
Histone deacetylase 1 [5] = molecular target: T1, Histone deacetylase 1 (Homo sapiens, UniProt Q13547); assay: Inhibition of recombinant human HDAC1 using Boc-Lys(Ac)-AMC as substrate preincubated for 15 mins followed by substrate addition measured after 60 mins by fluorescence-based assay
T1 sequence (Q13547 whole entry): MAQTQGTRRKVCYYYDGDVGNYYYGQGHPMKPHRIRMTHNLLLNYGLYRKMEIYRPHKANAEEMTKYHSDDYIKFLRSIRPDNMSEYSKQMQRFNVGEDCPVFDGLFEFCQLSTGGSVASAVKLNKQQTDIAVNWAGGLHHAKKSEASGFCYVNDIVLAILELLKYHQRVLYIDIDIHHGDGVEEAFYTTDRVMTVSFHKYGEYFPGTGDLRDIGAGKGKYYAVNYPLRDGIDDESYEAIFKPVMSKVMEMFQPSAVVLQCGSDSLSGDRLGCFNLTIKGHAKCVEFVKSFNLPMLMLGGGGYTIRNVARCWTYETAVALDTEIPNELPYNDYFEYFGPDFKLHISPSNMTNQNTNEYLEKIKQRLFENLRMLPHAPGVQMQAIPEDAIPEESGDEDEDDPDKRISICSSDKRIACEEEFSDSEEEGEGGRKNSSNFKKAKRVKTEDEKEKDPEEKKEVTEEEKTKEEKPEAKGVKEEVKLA

[6] = molecular target: T2, Protein deacetylase HDAC6 (Homo sapiens, UniProt Q9UBN7); assay: Inhibition of recombinant human HDAC6 using Boc-Lys(Ac)-AMC as substrate preincubated for 15 mins followed by substrate addition measured after 60 mins by fluorescence-based assay
T2 sequence (Q9UBN7 whole entry): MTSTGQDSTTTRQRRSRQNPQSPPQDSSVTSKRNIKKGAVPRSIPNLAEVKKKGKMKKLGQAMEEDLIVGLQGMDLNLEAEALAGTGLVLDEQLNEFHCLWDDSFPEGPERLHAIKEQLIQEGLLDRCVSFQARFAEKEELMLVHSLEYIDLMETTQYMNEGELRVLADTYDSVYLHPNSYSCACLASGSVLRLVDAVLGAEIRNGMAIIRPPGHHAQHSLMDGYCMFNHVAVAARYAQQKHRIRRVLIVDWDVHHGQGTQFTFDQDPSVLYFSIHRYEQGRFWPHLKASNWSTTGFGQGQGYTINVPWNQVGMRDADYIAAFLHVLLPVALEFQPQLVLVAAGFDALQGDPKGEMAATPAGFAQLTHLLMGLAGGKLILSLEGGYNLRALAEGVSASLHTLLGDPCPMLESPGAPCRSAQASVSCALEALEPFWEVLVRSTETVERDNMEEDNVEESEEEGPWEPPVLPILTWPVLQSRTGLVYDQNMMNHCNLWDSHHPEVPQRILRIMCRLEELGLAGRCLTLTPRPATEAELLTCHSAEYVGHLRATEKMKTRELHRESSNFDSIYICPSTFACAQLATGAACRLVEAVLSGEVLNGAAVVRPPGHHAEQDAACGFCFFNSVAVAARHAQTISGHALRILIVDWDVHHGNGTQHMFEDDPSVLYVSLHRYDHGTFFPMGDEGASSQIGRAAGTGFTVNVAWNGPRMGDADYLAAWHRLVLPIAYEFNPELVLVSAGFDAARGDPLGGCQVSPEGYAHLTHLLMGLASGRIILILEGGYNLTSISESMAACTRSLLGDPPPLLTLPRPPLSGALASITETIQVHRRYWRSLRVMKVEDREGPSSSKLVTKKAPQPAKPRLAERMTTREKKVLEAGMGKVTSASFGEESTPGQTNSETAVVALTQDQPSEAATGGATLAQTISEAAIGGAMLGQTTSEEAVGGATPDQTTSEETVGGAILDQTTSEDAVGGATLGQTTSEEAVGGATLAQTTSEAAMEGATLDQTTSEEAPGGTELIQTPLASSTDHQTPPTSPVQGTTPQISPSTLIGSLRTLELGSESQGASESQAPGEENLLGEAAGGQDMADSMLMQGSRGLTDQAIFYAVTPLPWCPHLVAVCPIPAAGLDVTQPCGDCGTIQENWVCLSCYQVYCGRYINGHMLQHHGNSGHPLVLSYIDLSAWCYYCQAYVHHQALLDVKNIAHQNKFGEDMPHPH

Histone deacetylase 11 = molecular target: T3, Histone deacetylase 11 (Homo sapiens, UniProt Q96DB2); assay: Inhibition of recombinant human HDAC11 using Boc-Lys(TFA)-AMC as substrate preincubated for 15 mins followed by substrate addition measured after 60 mins by fluorescence-based assay
T3 sequence (Q96DB2 whole entry): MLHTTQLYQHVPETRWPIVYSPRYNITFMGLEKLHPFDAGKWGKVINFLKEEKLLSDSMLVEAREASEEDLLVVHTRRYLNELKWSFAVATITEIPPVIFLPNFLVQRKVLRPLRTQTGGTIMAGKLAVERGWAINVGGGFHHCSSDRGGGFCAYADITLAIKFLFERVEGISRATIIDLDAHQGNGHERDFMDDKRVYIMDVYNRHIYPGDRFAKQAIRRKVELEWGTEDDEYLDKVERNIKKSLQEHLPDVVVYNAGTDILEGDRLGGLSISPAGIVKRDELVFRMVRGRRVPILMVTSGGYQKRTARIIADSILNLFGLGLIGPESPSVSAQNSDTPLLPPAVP

Histone deacetylase 4 = Histone deacetylase 4 (Homo sapiens, UniProt P56524); assay: Inhibition of recombinant human HDAC4 using Boc-Lys(TFA)-AMC as substrate preincubated for 15 mins followed by substrate addition measured after 60 mins by fluorescence-based assay
Histone deacetylase 4, sequence (P56524 whole entry): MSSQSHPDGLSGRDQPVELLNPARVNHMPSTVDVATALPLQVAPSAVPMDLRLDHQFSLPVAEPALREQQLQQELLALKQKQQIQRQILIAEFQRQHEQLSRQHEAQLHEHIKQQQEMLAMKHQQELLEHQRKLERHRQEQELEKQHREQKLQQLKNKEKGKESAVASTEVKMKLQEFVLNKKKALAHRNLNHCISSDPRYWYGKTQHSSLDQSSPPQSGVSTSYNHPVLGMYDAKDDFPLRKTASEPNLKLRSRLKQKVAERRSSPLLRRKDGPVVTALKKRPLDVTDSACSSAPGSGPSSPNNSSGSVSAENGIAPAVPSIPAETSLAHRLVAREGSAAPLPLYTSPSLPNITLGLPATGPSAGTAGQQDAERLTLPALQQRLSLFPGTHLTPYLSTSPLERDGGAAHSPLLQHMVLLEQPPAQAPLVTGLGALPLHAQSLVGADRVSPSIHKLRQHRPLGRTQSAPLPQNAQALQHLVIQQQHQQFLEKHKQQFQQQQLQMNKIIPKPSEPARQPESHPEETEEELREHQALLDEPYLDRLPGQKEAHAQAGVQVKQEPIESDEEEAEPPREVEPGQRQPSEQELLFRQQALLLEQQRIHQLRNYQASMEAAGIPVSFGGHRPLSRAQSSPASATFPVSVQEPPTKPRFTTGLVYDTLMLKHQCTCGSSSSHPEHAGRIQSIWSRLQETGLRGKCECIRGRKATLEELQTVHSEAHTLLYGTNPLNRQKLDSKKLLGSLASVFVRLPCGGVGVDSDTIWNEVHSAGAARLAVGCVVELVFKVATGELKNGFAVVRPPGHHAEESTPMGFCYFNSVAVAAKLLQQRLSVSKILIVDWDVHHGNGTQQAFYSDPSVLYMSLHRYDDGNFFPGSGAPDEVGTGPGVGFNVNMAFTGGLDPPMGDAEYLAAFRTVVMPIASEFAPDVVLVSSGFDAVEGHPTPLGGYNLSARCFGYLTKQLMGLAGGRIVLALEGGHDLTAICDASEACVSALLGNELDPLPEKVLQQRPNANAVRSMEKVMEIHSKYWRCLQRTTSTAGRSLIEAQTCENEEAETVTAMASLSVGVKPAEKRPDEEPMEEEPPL

[7] = molecular target: T4, Protein deacetylase HDAC6 (Homo sapiens) (UniProt Q9UBN7); assay: Inhibition of HDAC6 in human HCT116 cells assessed as increase in acetylated tubulin level after 24 hrs by Western blot analysis; format: cell-based; conditions: HCT-116
T4 sequence (whole entry): T2 sequence (Q9UBN7 whole entry)

Histone deacetylase 3 = Histone deacetylase 3 (Homo sapiens, UniProt O15379); assay: Inhibition of recombinant human HDAC3 using Boc-Lys(Ac)-AMC as substrate preincubated for 15 mins followed by substrate addition measured after 60 mins by fluorescence-based assay
Histone deacetylase 3, sequence (O15379 whole entry): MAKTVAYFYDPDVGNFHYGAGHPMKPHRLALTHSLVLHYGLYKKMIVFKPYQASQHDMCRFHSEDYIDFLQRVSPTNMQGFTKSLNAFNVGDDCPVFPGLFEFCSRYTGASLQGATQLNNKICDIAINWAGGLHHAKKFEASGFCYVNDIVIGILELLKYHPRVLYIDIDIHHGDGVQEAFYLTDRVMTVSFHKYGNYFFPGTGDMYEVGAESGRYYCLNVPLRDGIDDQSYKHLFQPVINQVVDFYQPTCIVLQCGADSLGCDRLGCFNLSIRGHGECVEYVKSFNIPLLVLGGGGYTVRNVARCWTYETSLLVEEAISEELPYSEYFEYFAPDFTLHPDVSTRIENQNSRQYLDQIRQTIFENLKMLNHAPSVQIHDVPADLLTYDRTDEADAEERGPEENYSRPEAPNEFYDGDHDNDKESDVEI

Histone deacetylase 2 = Histone deacetylase 2 (Homo sapiens, UniProt Q92769); assay: Inhibition of recombinant human HDAC2 using Boc-Lys(Ac)-AMC as substrate preincubated for 15 mins followed by substrate addition measured after 60 mins by fluorescence-based assay
Histone deacetylase 2, sequence (Q92769 whole entry): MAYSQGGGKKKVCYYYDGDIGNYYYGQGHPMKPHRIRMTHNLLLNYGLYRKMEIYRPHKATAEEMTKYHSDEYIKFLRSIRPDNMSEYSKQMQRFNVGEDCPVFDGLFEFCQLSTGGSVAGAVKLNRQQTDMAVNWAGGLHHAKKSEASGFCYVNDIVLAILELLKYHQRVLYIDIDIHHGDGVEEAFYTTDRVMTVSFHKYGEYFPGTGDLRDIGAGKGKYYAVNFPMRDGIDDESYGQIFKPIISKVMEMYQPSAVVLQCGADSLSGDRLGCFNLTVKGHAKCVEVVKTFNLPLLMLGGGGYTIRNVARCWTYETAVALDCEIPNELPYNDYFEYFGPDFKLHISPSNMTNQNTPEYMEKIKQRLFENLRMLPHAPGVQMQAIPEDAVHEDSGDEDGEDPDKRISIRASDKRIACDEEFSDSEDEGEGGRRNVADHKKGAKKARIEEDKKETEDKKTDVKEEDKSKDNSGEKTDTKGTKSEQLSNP

Histone deacetylase 8 = molecular target: T5, Histone deacetylase 8 (Homo sapiens, UniProt Q9BY41); assay: Inhibition of recombinant human HDAC8 using Boc-Lys(TFA)-AMC as substrate preincubated for 15 mins followed by substrate addition measured after 60 mins by fluorescence-based assay
T5 sequence (Q9BY41 whole entry): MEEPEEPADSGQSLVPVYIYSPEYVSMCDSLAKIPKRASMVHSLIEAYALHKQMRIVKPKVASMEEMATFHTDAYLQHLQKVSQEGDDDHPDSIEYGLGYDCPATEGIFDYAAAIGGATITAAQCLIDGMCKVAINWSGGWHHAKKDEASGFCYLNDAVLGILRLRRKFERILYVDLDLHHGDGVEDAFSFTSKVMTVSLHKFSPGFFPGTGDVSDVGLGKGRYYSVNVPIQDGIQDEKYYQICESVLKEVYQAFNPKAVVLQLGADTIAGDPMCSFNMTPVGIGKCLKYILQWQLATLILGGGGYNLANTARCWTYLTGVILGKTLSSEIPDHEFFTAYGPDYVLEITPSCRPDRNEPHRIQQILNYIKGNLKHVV

Histone deacetylase 1 [8] = molecular target: T1, Histone deacetylase 1; assay: Inhibition of HDAC1 in human HCT116 cells assessed as increase in acetylated histone H3 level after 24 hrs by Western blot analysis; format: cell-based; conditions: HCT-116

Structure (SMILES)	GI50 (A549)	GI50 (cells [1])	GI50 (cells [2])	GI50 (HT-29)	GI50 (MDA-MB-231)	GI50 at 96 h [3]	GI50 (MCF7)	GI50 (cells [4])	IC50 (Histone deacetylase)	IC50 (Histone deacetylase 1 [5])	IC50 [6]	IC50 (Histone deacetylase 11)	IC50 (Histone deacetylase 4)	inhibition [7]	IC50 (Histone deacetylase 3)	IC50 (Histone deacetylase 2)	IC50 (Histone deacetylase 8)	inhibition (Histone deacetylase 1 [8])
CCCCCCCC/C=C\CCCCCCCC(=O)SCCCCCCNC(=O)c1cc(-c2ccncc2)n[nH]1	33.3 µM	> 50 µM	> 50 µM	23.5 µM	> 50 µM	> 50 µM	31.1 µM	39.3 µM										
CC(C)C(=O)SCCCCCCNC(=O)c1cc(-c2ccncc2)n[nH]1	16.8 µM	31.7 µM	22.4 µM	25.7 µM	> 50 µM	> 50 µM	15.2 µM	22.7 µM										
CCC(=O)SCCCCCCNC(=O)c1cc(-c2ccncc2)n[nH]1	> 50 µM	> 50 µM	> 50 µM	> 50 µM	> 50 µM	> 50 µM	> 50 µM	> 50 µM										
O=C(NCCCCCCS)c1cc(C2CCCCC2)n[nH]1							> 50 µM	> 50 µM	0.364 µM	0.331 µM	0.241 µM							
O=C(NCCCCCCS)c1cc(-c2ccc(-c3ccccc3)cc2)n[nH]1							> 50 µM	> 50 µM	0.043 µM	0.225 µM	0.106 µM							
O=C(NCCCCCCS)c1cc(-c2ccccn2)n[nH]1							26.8 µM	> 50 µM	0.033 µM	0.124 µM	0.027 µM							
O=C(NCCCCCCS)c1cc(-c2ccncc2)n[nH]1	14.4 µM	36.9 µM	11 µM	10.2 µM	> 50 µM	17.5 µM	12.2 µM	25.3 µM	0.008 µM	0.012 µM	0.018 µM	> 10 µM	> 10 µM	Dose-dependent effect	0.011 µM	0.072 µM	> 10 µM	Dose-dependent effect
O=C(NCCCCCCS)c1cc(-c2cnccn2)n[nH]1							> 50 µM	> 50 µM	0.018 µM	0.015 µM	0.022 µM	> 10 µM	> 10 µM		0.023 µM	0.068 µM	> 10 µM	
COc1ccc(-c2cc(C(=O)NCCCCCCS)[nH]n2)cc1							14.8 µM	> 50 µM	0.15 µM		0.167 µM							
O=C(OCc1ccccc1)SCCCCCCNC(=O)c1cc(-c2ccncc2)n[nH]1	13.4 µM	32.3 µM	15.4 µM	22 µM	24.7 µM	19.7 µM	8.37 µM	18.2 µM										
CCCC(=O)SCCCCCCNC(=O)c1cc(-c2ccncc2)n[nH]1	15.1 µM	28.1 µM	32.1 µM	12.4 µM	> 50 µM	> 50 µM	12.1 µM	23.5 µM										
O=C(NCCCCCCS)c1cc(-c2ccc3ccccc3c2)n[nH]1							> 50 µM	> 50 µM	0.102 µM	0.133 µM	0.235 µM							
O=C(NCCCCCCS)c1cc(-c2ccccc2)n[nH]1							> 50 µM	> 50 µM	0.023 µM	0.098 µM	0.03 µM							
CSCCCCCCNC(=O)c1cc(-c2ccncc2)n[nH]1	> 50 µM	> 50 µM	> 50 µM	> 50 µM	> 50 µM	> 50 µM	> 50 µM	> 50 µM										
C=CCOC(=O)SCCCCCCNC(=O)c1cc(-c2ccncc2)n[nH]1	15.2 µM	27.5 µM	24.8 µM	11.9 µM	36 µM	27.5 µM	12.6 µM	32.9 µM										
O=C(NCCCCCCS)c1ccn[nH]1							> 50 µM	> 50 µM	0.081 µM	0.526 µM	0.092 µM							
O=C(NCCCCCCS)c1cc(-c2cccc3ccccc23)n[nH]1							> 50 µM	> 50 µM	0.608 µM	0.429 µM	0.244 µM							
Cc1cc(C(=O)NCCCCCCS)[nH]n1							> 50 µM	> 50 µM	0.715 µM									
COc1ccc(-c2cc(C(=O)NCCCCCCS)[nH]n2)cc1OC							30.8 µM	> 50 µM	0.056 µM	0.31 µM	0.056 µM							
CC(=O)SCCCCCCNC(=O)c1cc(-c2ccncc2)n[nH]1	18 µM	> 50 µM	36 µM	23.1 µM	> 50 µM	> 50 µM	24.9 µM	41.1 µM										
O=C(CCCCCCS)Nc1ccccc1							> 50 µM	> 50 µM										
O=C(NCCCCCCS)c1cc(-c2ccc(F)cc2)n[nH]1							> 50 µM	> 50 µM	0.245 µM									
COc1cc(-c2cc(C(=O)NCCCCCCS)[nH]n2)cc(OC)c1OC							> 50 µM	> 50 µM	0.102 µM	0.422 µM	0.084 µM							
O=C(NCCCCCCS)c1cc(-c2c[nH]c3ccccc23)n[nH]1							18.2 µM	> 50 µM	0.07 µM	0.15 µM	0.033 µM							
